Laboratory results published in patent US11883398B2, “Dipeptidylpeptidase 4 inhibition enhances lymphocyte trafficking, improving both naturally occurring tumor immunity and immunotherapy” (INSTITUT PASTEUR, priority 2015, dated 2024).

Columns and labels:
B16F10 melanoma = assay: Subcutaneous B16F10 melanoma tumor growth in vivo; set-up: species or system mouse
Description: Mice used were 7-12 weeks old. […] B16F10 and […] (Ovalbumin-expressing B16F10 cells, gift from C. Reis e Sousa) tumor cells were cultured in DMEM (Gibco) supplemented with 10% FCS (PAA), 0.1 mM non-essential amino acids, 1 mM sodium pyruvate, 10 mM Hepes, 70 μM beta-mercaptoethanol and 23 μg/ml gentamycin (all from Gibco). CT26 colon carcinoma cells were cultured in RPMI (Gibco) supplemented as described for DMEM. Cells for injections were passaged 1-2 times after thawing, before use. WT and genetically modified mice were subcutaneously injected with 2×10^5 B16 or 5×10^5 CT26 cells in the shaved right flank. […] For blocking of chemokine and chemokine receptors, WT mice were intraperitoneally injected with 100 μg of hamster a-mCXCR3 (clone CXCR3-173, BioLegend), 100 μg of hamster α-mCCR5 (clone HM-CCR5, BioLegend), 50 μg of rat anti-mCXCL10 (clone 134013, R&D systems) and 20 μg of rat-α-mCXCR4 (clone 2B11/CXCR4, BD Biosciences) or with respective isotype antibodies (hamster IgG (clone HTK888, BioLegend, used as control for mCXCR3 and mCCR5 blockage); rat IgG2a (clone 54447, R&D systems, used as control for mCXCL10 blockade) and rat IgG2b (clone A95-1, BD Biosciences, used as control for mCXCR4 blockade). […] For CXCL10 neutralization, antibodies were injected on day 2, 5, 8 and 11 after tumor cell injection. For immunotherapy protocols, mice were intraperitoneally injected with 100 μg of mouse α-CTLA-4 (clone 9D9, Bioxcell), 200 μg of PD1 (clone RMP1-14, Bioxcell), a combination of 100 μg of α-CTLA-4+200 μg of a-PD1 or control isotypes (100 μg […] and 200 μg rat IgG2a (clone 2A3), both from Bioxcell) on day 3, 6 and 9 after tumor cell implantation. For adoptive cell transfer experiments, Pmel-1 Thy-1.1^+Thy-1.1^+, Cxcr3^-/- Thy-1.1^+Thy-1.2^+ Pmel-1 or OT1 splenocytes were activated ex-vivo, by incubation with 1 nM of human gp100 (for Pmel-1 cells) or […] (for OT1 cells) peptides for 1h at room temperature with agitation. Splenocytes were then washed and resuspended in R10 supplemented with 30U/mL of recombinant human IL-2. CD8^+ T cells were expanded for 6-7 days before used. […] For analysis of tumor growth, activated OT1 cells were injected intravenously (1×10^5 cells per mouse) into gender matched tumor-bearing mice, 3 days after tumor cell injection. Tumor height and width were measured with a caliper and tumor volume was calculated (Elliptical volume=width^2×height×0.523). […] Lungs with more than 100 metastatic nodules were defined as 100.

B16F10 cells = assay: Model of metastatic melanoma (intravenous B16F10, lung metastatic foci); assay type: in vivo, mouse; conditions: 15 days after intravenous injection of B16F10 cells
Description: (§1) B16F10 and M04 (Ovalbumin-expressing B16F10 cells, gift from C. Reis e Sousa) tumor cells were cultured in DMEM (Gibco) supplemented with 10% FCS (PAA), 0.1 mM non-essential amino acids, 1 mM sodium pyruvate, 10 mM Hepes, 70 μM beta-mercaptoethanol and 23 μg/ml gentamycin (all from Gibco). CT26 colon carcinoma cells were cultured in RPMI (Gibco) supplemented as described for DMEM. Cells for injections were passaged 1-2 times after thawing, before use. WT and genetically modified mice were subcutaneously injected with 2×10^5 B16 or 5×10^5 CT26 cells in the shaved right flank. When indicated, mice received an intra-tumoral injection of 1 μg of recombinant mCXCL10, 5 μg CpG-A in DOPTAP or vehicle control. […] Tumor height and width were measured with a caliper and tumor volume was calculated (Elliptical volume=width^2×height×0.523). […] 15 days after tumor cell injection, lungs were dissected, placed in Fekete's solution and metastatic foci were counted. […]

[1] = tested on: M04 (B16F10 transfected with OVA); assay: B16-OVA (M04) tumor growth with OT1 adoptive T cell transfer; assay type: in vivo, mouse
Description: as §1

## N[C@@H](CC(=O)N1CCn2c(nnc2C(F)(F)F)C1)Cc1cc(F)c(F)cc1F [sitagliptin]
B16F10 melanoma; Cxcl10-/- mice, sitagliptin vs control
  B16F10 tumor growth in Cxcl10-/- mice: the delayed tumor growth achieved by DPP4 inhibition was absent
B16F10 melanoma; Cxcr3-/- mice, sitagliptin vs control
  B16F10 tumor growth in Cxcr3-/- mice: abrogated the delayed tumor growth
B16F10 melanoma; Dpp4-/- mice, sitagliptin vs control chow
  B16F10 tumor growth in Dpp4-/- mice: did not influence the kinetics of melanoma growth
B16F10 melanoma; Rag2-/- mice, sitagliptin vs control
  B16F10 tumor growth in Rag2-/- mice: the beneficial effects of DPP4 inhibition were lost
B16F10 melanoma; WT mice, sitagliptin vs control chow
  B16F10 tumor growth: reduced tumor growth
B16F10 melanoma; anti-mCXCR4 antibody, sitagliptin vs control
  B16F10 tumor growth with CXCR4 blocking in vivo: did not impact sitagliptin-mediated inhibition of tumor growth
B16F10 melanoma; loss of sitagliptin effect as in Cxcl10-/- mice
  B16F10 tumor growth in wild-type animals treated with CXCL10 blocking antibodies: confirmed
B16F10 melanoma; sitagliptin chow started 3, 5 or 7 days after tumor implantation
  growth of established B16F10 tumors: delay in tumor growth if sitagliptin was administrated within 5 days after tumor cell implantation
B16F10 cells
  number of lung metastases: significantly reduced the number of lung metastases
[1]; B16-OVA tumors, day 15
  reduction in tumor size: ~50%
[1]; monotherapies vs control
  B16-OVA tumor growth: significant delay
